According to patent publication US9174967B2, “Substituted pyrazole-containing compounds and their use as pesticides” (BASF SE, priority 2012, dated 2015):

Key:
Assay in all cases: whole plant or invertebrate
Assay type in all cases: in vivo
[1] = test system: Cowpea Aphid (aphis craccivora); details: spray, population reduction assessed after 24, 72 and 120 hours, read-out: mortality in comparison with untreated controls
[2] = test system: Diamond Back Moth (plutella xylostella); details: in Brassica oleracea, foliar, leaf dip, 3rd instar larvae, 72 hours after treatment, read-out: mortality in comparison with untreated controls
[3] = test system: Mediterranean Fruitfly (Ceratitis capitata); details: 120 h, egg and larval mortality after 5 days, read-out: mortality in comparison with untreated controls
[4] = test system: Boll Weevil (Anthonomus grandis); details: 120 h, egg and larval mortality after 5 days, read-out: mortality in comparison with untreated controls
[5] = test system: Vetch Aphid (Megoura viciae); details: foliar, 120 h, adult aphids, after 5 days, read-out: mortality in comparison with untreated controls
[6] = test system: Southern Armyworm (Spodoptera eridania); details: in Phaseolus lunatus, 96 h, larvae, 4 days after treatment, read-out: mortality in comparison with untreated controls
[7] = test system: Silverleaf Whitefly (Bemisia argentifolii); details: 72 h, whitefly adults, 3 days after treatment, read-out: mortality in comparison with untreated controls
[8] = test system: Rice Brown Plant Hopper (Nilaparvata lugens); details: adults, after 72 hours, read-out: mortality in comparison with untreated controls
[9] = test system: Red Spider Mite (Tetranychus kanzawai); details: in Vigna unguiculata, 72 hours after treatment, read-out: mortality in comparison with untreated controls
[10] = test system: Rice Green Leafhopper (Nephotettix virescens); details: adults, after 72 hours, read-out: mortality in comparison with untreated controls
[11] = test system: Orchid Thrips (dichromothrips corbetti); details: 96 h, adult thrips, after 4 days, read-out: mortality in comparison with untreated controls
[12] = test system: Tobacco Budworm (Heliothis virescens); details: in Gossypium hirsutum, 96 h, larvae, 4 days after treatment, read-out: mortality in comparison with untreated controls
[13] = test system: Colorado Potato Beetle (Leptinotarsa decemlineata); details: in Solanum melongena, foliar, 96 h, larvae, 4 days after treatment, read-out: mortality in comparison with untreated controls
[14] = test system: Green Peach Aphid (Myzus persicae); details: 120 h, after 5 days, read-out: mortality in comparison with untreated controls

CCS(CC)=Nc1c(-c2cc(Cl)c3c(c2)OCO3)c(C(F)(F)F)nn1-c1ncccn1 [I.1-1, [4-(7-Chloro-1,3-benzodioxol-5-yl)-2-pyrimidin-2-yl-5-(trifluoromethyl)pyrazol-3-yl]imino-diethyl-λ^4-sulfane]
≥ 75%: mortality at 300 ppm [1] | mortality at 300 ppm [2] | mortality at 2500 ppm [3] | mortality at 2500 ppm [4] | mortality at 2500 ppm [5] | mortality at 300 ppm [6] | mortality at 500 ppm [7] | mortality at 500 ppm [8] | mortality at 300 ppm [9] | mortality at 300 ppm [10] | mortality at 300 ppm [11] | mortality at 2500 ppm [12]

CC(C)S(=Nc1c(-c2cc(Cl)c3c(c2)OCO3)c(C(F)(F)F)nn1-c1ncccn1)C(C)C [I.1-2, [4-(7-Chloro-1,3-benzodioxol-5-yl)-2-pyrimidin-2-yl-5-(trifluoromethyl)pyrazol-3-yl]imino-diisopropyl-λ^4-sulfane]
≥ 75%: mortality at 300 ppm [1] | mortality at 300 ppm [2] | mortality at 2500 ppm [3] | mortality at 2500 ppm [4] | mortality at 2500 ppm [5] | mortality at 300 ppm [6] | mortality at 500 ppm [7] | mortality at 500 ppm [8] | mortality at 300 ppm [10] | mortality at 300 ppm [11] | mortality at 2500 ppm [12]

FC(F)(F)c1nn(-c2ncccn2)c(N=S2CCCC2)c1-c1cc(Cl)c2c(c1)OCO2 [I.1-3, 2-[4-(7-Chloro-1,3-benzodioxol-5-yl)-5-(thiolan-1-ylideneamino)-3-(trifluoromethyl)pyrazol-1-yl]pyrimidine]
≥ 75%: mortality at 300 ppm [1] | mortality at 300 ppm [2] | mortality at 2500 ppm [3] | mortality at 2500 ppm [4] | mortality at 2500 ppm [5] | mortality at 300 ppm [6] | mortality at 500 ppm [7] | mortality at 500 ppm [8] | mortality at 300 ppm [9] | mortality at 300 ppm [10] | mortality at 300 ppm [11] | mortality at 2500 ppm [12]

CCS(CC)=Nc1c(-c2cc(Cl)cc(C(F)(F)F)c2)c(C(F)(F)F)nn1-c1ncccn1 [I.1-4]
≥ 75%: mortality at 300 ppm [1] | mortality at 300 ppm [2] | mortality at 2500 ppm [3] | mortality at 2500 ppm [4] | mortality at 2500 ppm [5] | mortality at 300 ppm [6] | mortality at 500 ppm [8] | mortality at 300 ppm [9] | mortality at 300 ppm [10] | mortality at 300 ppm [11] | mortality at 2500 ppm [12]

CC(C)S(=Nc1c(-c2cc(Cl)cc(C(F)(F)F)c2)c(C(F)(F)F)nn1-c1ncccn1)C(C)C [I.1-5]
≥ 75%: mortality at 300 ppm [1] | mortality at 300 ppm [2] | mortality at 300 ppm [13] | mortality at 2500 ppm [3] | mortality at 2500 ppm [4] | mortality at 2500 ppm [5] | mortality at 300 ppm [6] | mortality at 500 ppm [7] | mortality at 500 ppm [8] | mortality at 300 ppm [14] | mortality at 300 ppm [9] | mortality at 300 ppm [10] | mortality at 300 ppm [11] | mortality at 2500 ppm [12]

FC(F)(F)c1cc(Cl)cc(-c2c(C(F)(F)F)nn(-c3ncccn3)c2-n2cccc2)c1 [I.1-7, 2-[4-[3-chloro-5-(trifluoromethyl)phenyl]-5-pyrrol-1-yl-3-(trifluoromethyl)pyrazol-1-yl]pyrimidine]
≥ 75%: mortality at 300 ppm [1] | mortality at 300 ppm [2] | mortality at 300 ppm [6] | mortality at 500 ppm [7] | mortality at 300 ppm [10] | mortality at 300 ppm [11] | mortality at 2500 ppm [12]

CCNC(=O)N(C(=O)NCC)c1c(-c2cc(Cl)cc(C(F)(F)F)c2)c(C(F)(F)F)nn1-c1ncccn1 [I.1-9, 1-[4-[3-chloro-5-(trifluoromethyl)phenyl]-2-pyrimidin-2-yl-5-(trifluoromethyl)pyrazol-3-yl]-3-ethyl-1-(ethylcarbamoyl)urea]
≥ 75%: mortality at 500 ppm [8]

FC(F)(F)c1cc(Cl)cc(-c2c(C(F)(F)F)nn(-c3ncccn3)c2/N=N/Nc2ccccc2)c1 [I.1-10, N-[(E)-[4-[3-chloro-5-(trifluoromethyl)phenyl]-2-pyrimidin-2-yl-5-(trifluoromethyl)pyrazol-3-yl]azo]aniline]
≥ 75%: mortality at 300 ppm [1] | mortality at 300 ppm [2] | mortality at 2500 ppm [3] | mortality at 2500 ppm [4] | mortality at 2500 ppm [5] | mortality at 300 ppm [6] | mortality at 300 ppm [14] | mortality at 2500 ppm [12]
